Tests used:
[1] = molecular target: Cyclin-dependent kinase 1/cyclin B1 (Homo sapiens) (UniProt P06493+P14635); assay: Inhibition of CDK1/Cyclin B at 10 uM by HotSpot assay relative to control; format: protein-complex assay
[2] = molecular target: Tyrosine-protein kinase ABL1 (Homo sapiens) (UniProt P00519); assay: Inhibition of Abl at 10 uM by HotSpot assay relative to control
[3] = molecular target: Mitogen-activated protein kinase 14 (Homo sapiens) (UniProt Q16539); assay: Inhibition of p38-alpha at 10 uM by HotSpot assay relative to control
[4] = molecular target: Angiopoietin-1 receptor (Homo sapiens) (UniProt Q02763); assay: Inhibition of TIE2 at 10 uM by HotSpot assay relative to control
[5] = molecular target: High affinity nerve growth factor receptor (Homo sapiens) (UniProt P04629); assay: Inhibition of TRKA at 10 uM by HotSpot assay relative to control
[6] = molecular target: Mast/stem cell growth factor receptor Kit (Homo sapiens) (UniProt P10721); assay: Inhibition of c-kit at 10 uM by HotSpot assay relative to control
[7] = molecular target: Focal adhesion kinase 1 (PTK2/FAK) (Homo sapiens) (UniProt Q05397); assay: Inhibition of PTK2 at 10 uM by HotSpot assay relative to control
[8] = molecular target: Tyrosine-protein kinase Lyn (Homo sapiens) (UniProt P07948); assay: Inhibition of LYN at 10 uM by HotSpot assay relative to control
Tyrosine-protein kinase Lyn (Homo sapiens), sequence (P07948 2-512 limits assumed): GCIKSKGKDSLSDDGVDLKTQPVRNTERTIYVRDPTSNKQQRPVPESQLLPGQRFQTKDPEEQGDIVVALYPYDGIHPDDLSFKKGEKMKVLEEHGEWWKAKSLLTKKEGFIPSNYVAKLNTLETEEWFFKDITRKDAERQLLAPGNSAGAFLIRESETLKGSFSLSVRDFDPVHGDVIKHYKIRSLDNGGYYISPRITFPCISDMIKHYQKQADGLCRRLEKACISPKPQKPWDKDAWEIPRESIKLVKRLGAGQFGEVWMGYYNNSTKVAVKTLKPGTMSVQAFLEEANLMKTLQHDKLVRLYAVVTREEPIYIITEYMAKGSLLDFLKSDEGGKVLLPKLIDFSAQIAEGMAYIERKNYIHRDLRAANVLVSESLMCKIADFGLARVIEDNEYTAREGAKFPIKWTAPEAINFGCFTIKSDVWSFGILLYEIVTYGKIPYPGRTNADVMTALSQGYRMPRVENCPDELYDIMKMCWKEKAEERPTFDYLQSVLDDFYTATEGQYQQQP

[9] = molecular target: Hepatocyte growth factor receptor (Homo sapiens) (UniProt P08581); assay: Inhibition of c-MET at 10 uM by HotSpot assay relative to control
[10] = molecular target: Muscle, skeletal receptor tyrosine-protein kinase (Homo sapiens) (UniProt O15146); assay: Inhibition of MUSK at 10 uM by HotSpot assay relative to control
Muscle, skeletal receptor tyrosine-protein kinase (Homo sapiens), sequence (O15146 whole entry): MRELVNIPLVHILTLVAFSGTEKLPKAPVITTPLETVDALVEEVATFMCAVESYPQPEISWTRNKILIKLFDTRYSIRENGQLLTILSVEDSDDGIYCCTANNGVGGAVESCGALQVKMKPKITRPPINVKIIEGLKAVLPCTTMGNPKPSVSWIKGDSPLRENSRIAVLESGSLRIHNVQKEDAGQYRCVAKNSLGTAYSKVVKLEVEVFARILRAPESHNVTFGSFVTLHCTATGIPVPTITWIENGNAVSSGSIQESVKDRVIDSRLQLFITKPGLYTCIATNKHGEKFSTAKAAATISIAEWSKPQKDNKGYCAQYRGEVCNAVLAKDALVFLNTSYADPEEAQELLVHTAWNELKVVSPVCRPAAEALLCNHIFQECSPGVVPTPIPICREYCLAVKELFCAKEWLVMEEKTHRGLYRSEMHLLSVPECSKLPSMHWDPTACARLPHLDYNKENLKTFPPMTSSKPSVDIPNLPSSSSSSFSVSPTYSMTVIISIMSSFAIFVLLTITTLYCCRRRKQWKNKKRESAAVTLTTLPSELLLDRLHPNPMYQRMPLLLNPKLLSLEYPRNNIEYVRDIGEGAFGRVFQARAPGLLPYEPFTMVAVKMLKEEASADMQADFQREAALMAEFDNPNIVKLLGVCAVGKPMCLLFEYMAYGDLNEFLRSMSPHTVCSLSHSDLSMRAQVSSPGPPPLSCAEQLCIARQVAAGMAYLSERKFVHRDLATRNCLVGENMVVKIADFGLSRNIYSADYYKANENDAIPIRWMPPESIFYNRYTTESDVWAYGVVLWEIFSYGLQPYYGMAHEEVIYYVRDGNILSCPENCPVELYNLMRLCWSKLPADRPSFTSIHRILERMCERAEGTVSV

[11] = molecular target: Tyrosine-protein kinase JAK1 (Homo sapiens) (UniProt P23458); assay: Inhibition of JAK1 at 10 uM by HotSpot assay relative to control
[12] = molecular target: Fibroblast growth factor receptor 1 (Homo sapiens) (UniProt P11362); assay: Inhibition of FGFR1 at 10 uM by HotSpot assay relative to control
Fibroblast growth factor receptor 1 (Homo sapiens), sequence (P11362 22-822 limits assumed): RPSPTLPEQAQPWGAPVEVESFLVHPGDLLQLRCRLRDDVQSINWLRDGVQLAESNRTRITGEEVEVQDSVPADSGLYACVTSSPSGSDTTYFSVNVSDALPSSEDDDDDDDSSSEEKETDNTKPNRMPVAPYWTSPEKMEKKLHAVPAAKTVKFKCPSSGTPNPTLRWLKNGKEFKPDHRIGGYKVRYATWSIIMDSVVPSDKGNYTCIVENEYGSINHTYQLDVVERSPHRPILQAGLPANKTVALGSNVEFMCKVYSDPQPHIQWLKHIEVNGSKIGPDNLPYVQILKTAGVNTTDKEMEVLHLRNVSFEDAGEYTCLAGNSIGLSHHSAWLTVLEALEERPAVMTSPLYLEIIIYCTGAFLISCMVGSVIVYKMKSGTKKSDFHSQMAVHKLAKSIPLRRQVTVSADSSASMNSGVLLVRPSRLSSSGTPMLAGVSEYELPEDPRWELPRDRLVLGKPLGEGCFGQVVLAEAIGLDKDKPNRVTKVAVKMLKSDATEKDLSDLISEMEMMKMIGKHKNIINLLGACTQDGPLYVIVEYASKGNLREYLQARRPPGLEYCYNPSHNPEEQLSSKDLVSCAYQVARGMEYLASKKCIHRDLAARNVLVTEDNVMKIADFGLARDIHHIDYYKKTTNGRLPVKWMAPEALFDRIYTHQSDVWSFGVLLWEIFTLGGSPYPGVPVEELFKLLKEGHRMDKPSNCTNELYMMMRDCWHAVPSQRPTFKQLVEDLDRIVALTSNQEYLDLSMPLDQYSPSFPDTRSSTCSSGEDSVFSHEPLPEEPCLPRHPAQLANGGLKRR

[13] = molecular target: Insulin receptor (Homo sapiens) (UniProt P06213); assay: Inhibition of IR at 10 uM by HotSpot assay relative to control
[14] = molecular target: Epidermal growth factor receptor (Homo sapiens) (UniProt P00533); assay: Inhibition of EGFR at 10 uM by HotSpot assay relative to control
Epidermal growth factor receptor (Homo sapiens), sequence (P00533 whole entry): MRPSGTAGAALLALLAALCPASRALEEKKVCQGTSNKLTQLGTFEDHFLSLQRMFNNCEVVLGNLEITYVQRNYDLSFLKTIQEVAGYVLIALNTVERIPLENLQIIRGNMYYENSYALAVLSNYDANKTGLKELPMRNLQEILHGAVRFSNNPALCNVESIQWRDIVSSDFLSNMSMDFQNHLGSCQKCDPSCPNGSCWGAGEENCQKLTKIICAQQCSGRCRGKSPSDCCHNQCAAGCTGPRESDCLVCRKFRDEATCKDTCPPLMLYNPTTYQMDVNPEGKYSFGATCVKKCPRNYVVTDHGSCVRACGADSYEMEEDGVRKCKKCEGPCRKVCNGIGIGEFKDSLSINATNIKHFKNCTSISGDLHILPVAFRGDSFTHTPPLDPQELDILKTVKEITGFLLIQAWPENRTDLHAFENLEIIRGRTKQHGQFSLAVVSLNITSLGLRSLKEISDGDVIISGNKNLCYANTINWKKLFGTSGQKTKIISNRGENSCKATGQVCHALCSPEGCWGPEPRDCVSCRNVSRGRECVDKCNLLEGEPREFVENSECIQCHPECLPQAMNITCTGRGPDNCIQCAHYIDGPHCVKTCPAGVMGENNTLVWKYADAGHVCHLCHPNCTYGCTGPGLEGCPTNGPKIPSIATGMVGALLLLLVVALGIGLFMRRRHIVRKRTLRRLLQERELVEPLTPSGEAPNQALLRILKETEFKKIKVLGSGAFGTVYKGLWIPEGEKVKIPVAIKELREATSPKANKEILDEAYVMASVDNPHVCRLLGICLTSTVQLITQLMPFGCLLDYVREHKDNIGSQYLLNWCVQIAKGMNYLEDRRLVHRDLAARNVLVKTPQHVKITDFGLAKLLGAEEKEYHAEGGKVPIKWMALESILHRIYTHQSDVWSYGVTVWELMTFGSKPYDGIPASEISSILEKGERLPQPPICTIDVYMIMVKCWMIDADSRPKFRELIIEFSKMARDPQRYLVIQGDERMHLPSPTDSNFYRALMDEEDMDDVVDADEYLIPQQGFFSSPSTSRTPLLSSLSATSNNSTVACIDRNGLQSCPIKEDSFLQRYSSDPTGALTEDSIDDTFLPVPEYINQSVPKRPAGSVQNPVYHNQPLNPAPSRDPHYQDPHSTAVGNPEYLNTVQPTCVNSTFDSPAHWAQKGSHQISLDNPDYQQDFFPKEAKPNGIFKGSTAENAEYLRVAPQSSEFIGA

[15] = molecular target: DNA-dependent protein kinase catalytic subunit (Homo sapiens) (UniProt P78527); assay: Inhibition of DNA-PK at 10 uM by HotSpot assay relative to control
[16] = molecular target: Tyrosine-protein kinase Yes (Homo sapiens) (UniProt P07947); assay: Inhibition of YES at 10 uM by HotSpot assay relative to control
[17] = molecular target: Serine/threonine-protein kinase B-raf (Homo sapiens) (UniProt P15056); assay: Inhibition of BRAF at 10 uM by HotSpot assay relative to control
[18] = molecular target: RAF proto-oncogene serine/threonine-protein kinase (Homo sapiens) (UniProt P04049); assay: Inhibition of RAF1 at 10 uM by HotSpot assay relative to control
[19] = molecular target: Protein kinase C alpha type (Homo sapiens) (UniProt P17252); assay: Inhibition of PKCalpha at 10 uM by HotSpot assay relative to control
[20] = molecular target: Proto-oncogene tyrosine-protein kinase receptor Ret (Homo sapiens) (UniProt P07949); assay: Inhibition of RET at 10 uM by HotSpot assay relative to control
[21] = molecular target: Tyrosine-protein kinase SYK (Homo sapiens) (UniProt P43405); assay: Inhibition of SYK at 10 uM by HotSpot assay relative to control
[22] = molecular target: Aurora kinase A (Homo sapiens) (UniProt O14965); assay: Inhibition of Aurora-A at 10 uM by HotSpot assay relative to control
[23] = test system: RAC-alpha serine/threonine-protein kinase (Homo sapiens), P31749 [S473D]; assay: Inhibition of AKT1 dPH, S473D mutant at 10 uM by HotSpot assay relative to control
[24] = molecular target: Serine/threonine-protein kinase pim-1 (Homo sapiens) (UniProt P11309); assay: Inhibition of PIM1 at 10 uM by HotSpot assay relative to control
[25] = molecular target: Tyrosine-protein kinase Fgr (Homo sapiens) (UniProt P09769); assay: Inhibition of FGR at 10 uM by HotSpot assay relative to control
[26] = molecular target: Vascular endothelial growth factor receptor 2 (Homo sapiens) (UniProt P35968); assay: Inhibition of VEGFR2 at 10 uM by HotSpot assay relative to control
[27] = molecular target: Casein kinase I isoform epsilon (Homo sapiens) (UniProt P49674); assay: Inhibition of CK1epsilon at 10 uM by HotSpot assay relative to control
[28] = molecular target: Serine/threonine-protein kinase PAK 4 (Homo sapiens) (UniProt O96013); assay: Inhibition of PAK4 at 10 uM by HotSpot assay relative to control
[29] = molecular target: Ephrin type-A receptor 1 (Homo sapiens) (UniProt P21709); assay: Inhibition of EPHA1 at 10 uM by HotSpot assay relative to control
[30] = molecular target: Inhibitor of nuclear factor kappa-B kinase subunit alpha (Homo sapiens) (UniProt O15111); assay: Inhibition of IKK-alpha at 10 uM by HotSpot assay relative to control
Inhibitor of nuclear factor kappa-B kinase subunit alpha (Homo sapiens), sequence (O15111 whole entry): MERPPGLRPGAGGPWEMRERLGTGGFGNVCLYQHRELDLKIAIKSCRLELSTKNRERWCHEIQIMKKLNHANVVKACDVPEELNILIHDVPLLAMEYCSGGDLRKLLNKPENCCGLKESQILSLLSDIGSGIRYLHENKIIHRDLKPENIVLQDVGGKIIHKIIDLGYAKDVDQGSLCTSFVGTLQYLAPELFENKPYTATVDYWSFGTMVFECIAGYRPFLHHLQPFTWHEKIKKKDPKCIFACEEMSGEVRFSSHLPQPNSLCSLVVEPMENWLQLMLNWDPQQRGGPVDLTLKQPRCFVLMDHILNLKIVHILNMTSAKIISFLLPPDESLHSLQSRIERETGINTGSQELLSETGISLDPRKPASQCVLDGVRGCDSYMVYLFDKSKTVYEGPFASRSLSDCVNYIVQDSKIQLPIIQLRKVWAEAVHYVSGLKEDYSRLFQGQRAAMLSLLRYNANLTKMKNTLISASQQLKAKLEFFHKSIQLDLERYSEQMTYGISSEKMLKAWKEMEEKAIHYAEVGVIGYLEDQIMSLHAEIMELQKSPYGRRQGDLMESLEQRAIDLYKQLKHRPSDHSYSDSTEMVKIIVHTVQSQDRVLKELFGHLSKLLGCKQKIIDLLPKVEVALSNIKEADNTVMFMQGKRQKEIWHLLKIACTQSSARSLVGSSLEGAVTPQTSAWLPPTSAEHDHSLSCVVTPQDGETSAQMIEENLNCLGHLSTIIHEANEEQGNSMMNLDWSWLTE

[31] = molecular target: Tyrosine-protein kinase Fyn (Homo sapiens) (UniProt P06241); assay: Inhibition of FYN at 10 uM by HotSpot assay relative to control
[32] = molecular target: Ribosomal protein S6 kinase beta-1 (Homo sapiens) (UniProt P23443); assay: Inhibition of p70S6K at 10 uM by HotSpot assay relative to control
[33] = molecular target: Mitogen-activated protein kinase 8 (Homo sapiens) (UniProt P45983); assay: Inhibition of JNK1-alpha-1 at 10 uM by HotSpot assay relative to control
Mitogen-activated protein kinase 8 (Homo sapiens), sequence (P45983 whole entry): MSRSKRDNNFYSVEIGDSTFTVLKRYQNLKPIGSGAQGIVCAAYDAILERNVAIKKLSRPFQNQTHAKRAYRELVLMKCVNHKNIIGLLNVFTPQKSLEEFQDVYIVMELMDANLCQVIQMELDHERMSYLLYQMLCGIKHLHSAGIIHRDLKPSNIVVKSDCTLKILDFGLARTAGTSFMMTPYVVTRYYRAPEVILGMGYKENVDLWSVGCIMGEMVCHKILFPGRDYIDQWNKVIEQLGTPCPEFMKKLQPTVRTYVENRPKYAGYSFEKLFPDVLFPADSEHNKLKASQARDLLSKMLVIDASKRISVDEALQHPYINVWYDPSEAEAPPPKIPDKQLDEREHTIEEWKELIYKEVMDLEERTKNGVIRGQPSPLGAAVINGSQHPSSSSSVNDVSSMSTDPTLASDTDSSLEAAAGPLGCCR

[34] = molecular target: Rho-associated protein kinase 1 (Homo sapiens) (UniProt Q13464); assay: Inhibition of ROCK-I at 10 uM by HotSpot assay relative to control
[35] = molecular target: Serine/threonine-protein kinase Chk1 (Homo sapiens) (UniProt O14757); assay: Inhibition of CHEK1 at 10 uM by HotSpot assay relative to control
Serine/threonine-protein kinase Chk1 (Homo sapiens), sequence (O14757 whole entry): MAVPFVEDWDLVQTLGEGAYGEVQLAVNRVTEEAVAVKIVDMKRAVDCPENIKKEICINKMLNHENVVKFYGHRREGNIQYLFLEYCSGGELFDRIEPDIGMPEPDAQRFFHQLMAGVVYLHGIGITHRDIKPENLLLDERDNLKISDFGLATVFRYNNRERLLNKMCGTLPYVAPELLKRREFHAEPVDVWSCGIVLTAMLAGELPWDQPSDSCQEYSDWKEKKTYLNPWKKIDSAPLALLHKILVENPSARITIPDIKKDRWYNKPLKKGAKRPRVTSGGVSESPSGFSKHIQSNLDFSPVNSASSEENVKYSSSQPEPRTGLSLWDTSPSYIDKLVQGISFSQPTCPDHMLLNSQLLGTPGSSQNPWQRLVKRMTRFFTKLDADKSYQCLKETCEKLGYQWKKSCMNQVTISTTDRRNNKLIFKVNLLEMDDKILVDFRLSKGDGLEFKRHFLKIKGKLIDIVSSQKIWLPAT

[36] = molecular target: Macrophage-stimulating protein receptor (Homo sapiens) (UniProt Q04912); assay: Inhibition of MST1R at 10 uM by HotSpot assay relative to control
[37] = molecular target: Homeodomain-interacting protein kinase 1 (Homo sapiens) (UniProt Q86Z02); assay: Inhibition of HIPK1 at 10 uM by HotSpot assay relative to control
[38] = molecular target: Tyrosine-protein kinase Lck (Homo sapiens) (UniProt P06239); assay: Inhibition of LCK at 10 uM by HotSpot assay relative to control
[39] = molecular target: Proto-oncogene tyrosine-protein kinase ROS (Homo sapiens) (UniProt P08922); assay: Inhibition of ROS1 at 10 uM by HotSpot assay relative to control
[40] = molecular target: Death-associated protein kinase 1 (Homo sapiens) (UniProt P53355); assay: Inhibition of DAPK1 at 10 uM by HotSpot assay relative to control
[41] = molecular target: Vascular endothelial growth factor receptor 1 (Homo sapiens) (UniProt P17948); assay: Inhibition of FLT1 at 10 uM by HotSpot assay relative to control
[42] = molecular target: Serine/threonine-protein kinase 26 (Homo sapiens) (UniProt Q9P289); assay: Inhibition of MST4 at 10 uM by HotSpot assay relative to control
[43] = molecular target: Dual specificity mitogen-activated protein kinase kinase 1 (Homo sapiens) (UniProt Q02750); assay: Inhibition of MEK1 at 10 uM by HotSpot assay relative to control
[44] = molecular target: Serine/threonine-protein kinase PLK1 (Homo sapiens) (UniProt P53350); assay: Inhibition of PLK1 at 10 uM by HotSpot assay relative to control
[45] = molecular target: Proto-oncogene tyrosine-protein kinase Src (Homo sapiens) (UniProt P12931); assay: Inhibition of c-Src at 10 uM by HotSpot assay relative to control

inhibition [1]: 3.64% | inhibition [2]: 20.4% | inhibition [3]: 5.27% | inhibition [4]: 8.17% | inhibition [5]: -0.14% | inhibition [6]: 2.85% | inhibition [7]: 3.43% | inhibition [8]: -1.45% | inhibition [9]: 5.82% | inhibition [10]: -0.42% | inhibition [11]: 9.15% | inhibition [12]: -8.05% | inhibition [13]: 7.01% | inhibition [14]: -2.23% | inhibition [15]: 6.56% | inhibition [16]: -2.59% | inhibition [17]: 8.97% | inhibition [18]: 20.4% | inhibition [19]: 9.23% | inhibition [20]: 6.65% | inhibition [21]: 8.23% | inhibition [22]: 21.8% | inhibition [23]: -2.97% | inhibition [24]: 5.91% | inhibition [25]: 3.34% | inhibition [26]: -5.84% | inhibition [27]: 9.32% | inhibition [28]: 1.37% | inhibition [29]: 23.3% | inhibition [30]: 1.37% | inhibition [31]: -7.86% | inhibition [32]: 5.79% | inhibition [33]: 3.83% | inhibition [34]: 11.7% | inhibition [35]: 2.36% | inhibition [36]: 28.8% | inhibition [37]: -3.43% | inhibition [38]: 10.3% | inhibition [39]: 93.9% | inhibition [41]: -1.67% | inhibition [42]: -1.54% | inhibition [43]: -6.97% | inhibition [44]: 5.85% | inhibition [45]: 16.2%
SMILES: Cc1cc(O)cc(-c2nn(CC#N)cc2-c2cc(NC[C@H](C)O)nc(-c3cccnc3)n2)c1
inhibition [40]: -1.17%

— ChEMBL document CHEMBL1153464
